Assay results reported in patent publication US12655120B2, “GPR52 modulator compounds” (NXERA PHARMA UK LIMITED, priority 2020, dated 2026).

Molecular target: T1, human GPR52 (Homo sapiens, UniProt Q9Y2T5)
T1 construct: expressed in transfected cells; host or cells: HEKf suspension cells infected with BacMam virus
Assay: GPR52 Agonist Functional cAMP Assay
Assay type: cell-based
Conditions: for EC50: HEKf cells infected with human GPR52 BacMam, HTRF cAMP, 30 min at 37° C., read-out: pEC50 average (converted); for Emax: normalised to DMSO (0%) and maximal compound 7m (J. Med. Chem., 2014, 57, 5226) response (100%)
Description: HEKf suspension cells were infected for 24 h with 0.1% v/v human GPR52 expressing BacMam virus, a modified baculovirus designed for mammalian gene expression. Following BacMam infection, cells were pelleted by centrifugation (335 g, 5 min), resuspended in cell freezing medium (Sigma) and frozen at −150° C. until required. On experiment day, 25 nL GPR52 compound dilutions, prepared in DMSO, were stamped onto proxiplates (PerkinElmer) by a LabCyte ECHO acoustic dispenser. Frozen cells were thawed and resuspended in assay stimulation buffer (Cisbio) containing 0.5 mM 3-iso-butyl-1-methylxanthine (IBMX, Sigma) to achieve a density of 2000 cells per well. 10 μl cells were added to assay plates using a Multidrop Combi Reagent Dispenser (ThermoFisher) before centrifugation (335 g, 1 min). Cells were incubated with compounds at 37° C. for 30 min prior to addition of cAMP detection reagents (HiRange cAMP kit, Cisbio) which were prepared according to the manufacturer's instructions. Plates were shaken for 1 h at room temperature before reading on a PHERAstar FS plate reader (BMG Labtech) using standard HTRF settings. HTRF ratios were obtained by dividing the acceptor emissions (665 nm) by the donor emissions (620 nm) and multiplying by 10,000.

T1 sequence (Q9Y2T5 whole entry): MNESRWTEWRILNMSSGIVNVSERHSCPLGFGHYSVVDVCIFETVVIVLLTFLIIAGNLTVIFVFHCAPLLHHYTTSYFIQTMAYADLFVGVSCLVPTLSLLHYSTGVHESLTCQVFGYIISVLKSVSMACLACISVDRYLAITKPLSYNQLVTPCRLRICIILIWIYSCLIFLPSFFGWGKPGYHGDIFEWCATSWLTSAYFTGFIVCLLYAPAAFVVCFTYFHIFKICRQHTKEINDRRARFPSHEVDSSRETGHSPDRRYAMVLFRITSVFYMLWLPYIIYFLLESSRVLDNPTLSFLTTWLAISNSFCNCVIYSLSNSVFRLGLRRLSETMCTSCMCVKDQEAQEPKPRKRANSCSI

Row | Structure (SMILES) | EC50 [nM] | Emax [%]
1 | NC(=O)c1cnn(-c2cc(Cc3cc(F)cc(C(F)(F)F)c3)ccn2)c1 [Example 1, 1-(4-(3-fluoro-5-(trifluoromethyl)benzyl)pyridin-2-yl)-1H-pyrazole-4-carboxamide] | 126 | 90
2 | NC(=O)c1cnn(-c2ccnc(Cc3cc(F)cc(C(F)(F)F)c3)c2)c1 [Example 2, 1-(2-(3-fluoro-5-(trifluoromethyl)benzyl)pyridin-4-yl)-1H-pyrazole-4-carboxamide] | 501 | 90
3 | CNC(=O)c1cnn(-c2cc(Cc3cc(F)cc(C(F)(F)F)c3)ccn2)c1 [Example 3, 1-(4-(3-fluoro-5-(trifluoromethyl)benzyl)pyridin-2-yl)-N-methyl-1H-pyrazole-4-carboxamide] | 316 | 86
4 | NC(=O)c1cnn(-c2cc(Cc3cc(F)cc(C(F)(F)F)c3)ccn2)n1 [Example 4, 2-(4-(3-fluoro-5-(trifluoromethyl)benzyl)pyridin-2-yl)-2H-1,2,3-triazole-4-carboxamide] | 316 | 84
5 | Cc1nn(-c2cc(Cc3cc(F)cc(C(F)(F)F)c3)ccn2)cc1C(N)=O [Example 5, 1-(4-(3-fluoro-5-(trifluoromethyl)benzyl)pyridin-2-yl)-3-methyl-1H-pyrazole-4-carboxamide] | 15.8 | 94
6 | Cc1nn(-c2cc(Cc3cc(F)cc(C(F)(F)F)c3)ccn2)c(C)c1C(N)=O [Example 6, 1-(4-(3-fluoro-5-(trifluoromethyl)benzyl)pyridin-2-yl)-3,5-dimethyl-1H-pyrazole-4-carboxamide] | 12.6 | 97
7 | Cc1c(C(N)=O)cnn1-c1cc(Cc2cc(F)cc(C(F)(F)F)c2)ccn1 [Example 7, 1-(4-(3-fluoro-5-(trifluoromethyl)benzyl)pyridin-2-yl)-5-methyl-1H-pyrazole-4-carboxamide] | 126 | 93
8 | Cc1nn(-c2ccnc(Cc3cc(F)cc(C(F)(F)F)c3)c2)cc1C(N)=O [Example 8, 1-(2-(3-fluoro-5-(trifluoromethyl)benzyl)pyridin-4-yl)-3-methyl-1H-pyrazole-4-carboxamide] | 20 | 96
9 | NC(=O)c1ccn(-c2cc(Cc3cc(F)cc(C(F)(F)F)c3)ccn2)n1 [Example 9, 1-(4-(3-fluoro-5-(trifluoromethyl)benzyl)pyridin-2-yl)-1H-pyrazole-3-carboxamide] | 100 | 85
10 | Cc1cn(-c2cc(Cc3cc(F)cc(C(F)(F)F)c3)ccn2)nc1C(N)=O [Example 10, 1-(4-(3-fluoro-5-(trifluoromethyl)benzyl)pyridin-2-yl)-4-methyl-1H-pyrazole-3-carboxamide] | 79.4 | 83
11 | COc1nn(-c2ccnc(Cc3cc(F)cc(C(F)(F)F)c3)c2)cc1C(N)=O [Example 11, 1-(2-(3-fluoro-5-(trifluoromethyl)benzyl)pyridin-4-yl)-3-methoxy-1H-pyrazole-4-carboxamide] | 251 | 86
12 | Cc1nn(-c2ccnc(Cc3cc(F)cc(C(F)(F)F)c3)c2)nc1C(N)=O [Example 12, 2-(2-(3-fluoro-5-(trifluoromethyl)benzyl)pyridin-4-yl)-5-methyl-2H-1,2,3-triazole-4-carboxamide] | 50.1 | 95
13 | Cc1nn(-c2cc(Cc3cc(F)cc(C(F)(F)F)c3)ccn2)nc1C(N)=O [Example 13, 2-(4-(3-fluoro-5-(trifluoromethyl)benzyl)pyridin-2-yl)-5-methyl-2H-1,2,3-triazole-4-carboxamide] | 39.8 | 93
14 | COc1nn(-c2cc(Cc3cc(F)cc(C(F)(F)F)c3)ccn2)cc1C(N)=O [Example 14, 1-(4-(3-fluoro-5-(trifluoromethyl)benzyl)pyridin-2-yl)-3-methoxy-1H-pyrazole-4-carboxamide] | 31.6 | 95

Second part, the compound after the results:

Row | EC50 [nM] | Emax [%] | Structure (SMILES)
15 | 79.4 | 92 | Cc1cn(-c2cccc(Cc3cc(F)cc(C(F)(F)F)c3)n2)nc1C(N)=O [Example 15, 1-(6-(3-fluoro-5-(trifluoromethyl)benzyl)pyridin-2-yl)-4-methyl-1H-pyrazole-3-carboxamide]
16 | 31.6 | 93 | Cc1nn(-c2ccnc(Cc3cc(F)cc(C(F)(F)F)c3)c2)cc1C(=O)N1CCCC1 [Example 16, (1-(2-(3-fluoro-5-(trifluoromethyl)benzyl)pyridin-4-yl)-3-methyl-1H-pyrazol-4-yl)(pyrrolidin-1-yl)methanone]
17 | 10 | 93 | CNC(=O)c1cn(-c2ccnc(Cc3cc(F)cc(C(F)(F)F)c3)c2)nc1C [Example 17, 1-(2-(3-fluoro-5-(trifluoromethyl)benzyl)pyridin-4-yl)-N,3-dimethyl-1H-pyrazole-4-carboxamide]
18 | 79.4 | 92 | Cc1nn(-c2ccnc(Cc3cc(F)cc(C(F)(F)F)c3)c2)cc1C(=O)N(C)C [Example 18, 1-(2-(3-fluoro-5-(trifluoromethyl)benzyl)pyridin-4-yl)-N,N,3-trimethyl-1H-pyrazole-4-carboxamide]
19 | 15.8 | 99 | Cc1nn(-c2ccnc(Cc3cc(F)cc(C(F)(F)F)c3)c2)cc1C(=O)NC1COC1 [Example 19, 1-(2-(3-fluoro-5-(trifluoromethyl)benzyl)pyridin-4-yl)-3-methyl-N-(oxetan-3-yl)-1H-pyrazole-4-carboxamide]
20 | 15.8 | 96 | Cc1nn(-c2ccnc(Cc3cc(F)cc(C(F)(F)F)c3)c2)cc1C(=O)NCCO [Example 20, 1-(2-(3-fluoro-5-(trifluoromethyl)benzyl)pyridin-4-yl)-N-(2-hydroxyethyl)-3-methyl-1H-pyrazole-4-carboxamide]
21 | 39.8 | 96 | COCCNC(=O)c1cn(-c2ccnc(Cc3cc(F)cc(C(F)(F)F)c3)c2)nc1C [Example 21, 1-(2-(3-fluoro-5-(trifluoromethyl)benzyl)pyridin-4-yl)-N-(2-methoxyethyl)-3-methyl-1H-pyrazole-4-carboxamide]
22 | 15.8 | 96 | NC(=O)c1cn(-c2ccnc(Cc3cc(F)cc(C(F)(F)F)c3)c2)nc1Cl [Example 22, 3-chloro-1-(2-(3-fluoro-5-(trifluoromethyl)benzyl)pyridin-4-yl)-1H-pyrazole-4-carboxamide]
23 | 25.1 | 87 | NC(=O)c1cn(-c2ccnc(Cc3cc(F)cc(C(F)(F)F)c3)c2)nc1C(F)F [Example 23, 3-(difluoromethyl)-1-(2-(3-fluoro-5-(trifluoromethyl)benzyl)pyridin-4-yl)-1H-pyrazole-4-carboxamide]
24 | 25.1 | 91 | NC(=O)c1cn(-c2ccnc(Cc3cc(F)cc(C(F)(F)F)c3)c2)nc1C(F)(F)F [Example 24, 1-(2-(3-fluoro-5-(trifluoromethyl)benzyl)pyridin-4-yl)-3-(trifluoromethyl)-1H-pyrazole-4-carboxamide]
25 | 10 | 99 | CCc1nn(-c2ccnc(Cc3cc(F)cc(C(F)(F)F)c3)c2)cc1C(N)=O [Example 25, 3-ethyl-1-(2-(3-fluoro-5-(trifluoromethyl)benzyl)pyridin-4-yl)-1H-pyrazole-4-carboxamide]
26 | 100 | 87 | N#Cc1nn(-c2ccnc(Cc3cc(F)cc(C(F)(F)F)c3)c2)cc1C(N)=O [Example 26, 3-cyano-1-(2-(3-fluoro-5-(trifluoromethyl)benzyl)pyridin-4-yl)-1H-pyrazole-4-carboxamide]
27 | 25.1 | 97 | NC(=O)c1cn(-c2ccnc(Cc3cc(F)cc(C(F)(F)F)c3)c2)nc1C1CC1 [Example 27, 3-cyclopropyl-1-(2-(3-fluoro-5-(trifluoromethyl)benzyl)pyridin-4-yl)-1H-pyrazole-4-carboxamide]
28 | 31.6 | 95 | CNC(=O)c1cc(C)n(-c2cc(Cc3cc(F)cc(C(F)(F)F)c3)ccn2)n1 [Example 28, 1-(4-(3-fluoro-5-(trifluoromethyl)benzyl)pyridin-2-yl)-N,5-dimethyl-1H-pyrazole-3-carboxamide]
29 | 1260 | 86 | NC(=O)c1ccn(-c2ccnc(Cc3cc(F)cc(C(F)(F)F)c3)c2)n1 [Example 29, 1-(2-(3-fluoro-5-(trifluoromethyl)benzyl)pyridin-4-yl)-1H-pyrazole-3-carboxamide]
30 | 158 | 93 | Cc1cc(C(N)=O)nn1-c1cc(Cc2cc(F)cc(C(F)(F)F)c2)ccn1 [Example 30, 1-(4-(3-fluoro-5-(trifluoromethyl)benzyl)pyridin-2-yl)-5-methyl-1H-pyrazole-3-carboxamide]
31 | 20 | 87 | CNC(=O)c1ccn(-c2cc(Cc3cc(F)cc(C(F)(F)F)c3)ccn2)n1 [Example 31, 1-(4-(3-fluoro-5-(trifluoromethyl)benzyl)pyridin-2-yl)-N-methyl-1H-pyrazole-3-carboxamide]
32 | 200 | 75 | CN(C)C(=O)c1ccn(-c2cc(Cc3cc(F)cc(C(F)(F)F)c3)ccn2)n1 [Example 32, 1-(4-(3-fluoro-5-(trifluoromethyl)benzyl)pyridin-2-yl)-N,N-dimethyl-1H-pyrazole-3-carboxamide]
